Laboratory results from US10406207B2, “Peptide conjugates of GLP-1 receptor agonists and gastrin and their use” (priority 2010, dated 2019).
Like-named read-outs stand apart in the source and are kept apart here. Numbered stars: 1 amine (or outer) side, 2 acyl side, 3 side chain; on linkers, the order of the positions; unused ones are H or OH. Square brackets hold non-standard residues; d marks the D form. Side chains are listed from the residue outwards. Peptide text beside a SMILES is read from it. * marks the point of attachment. γGlu = O=C(O)[C@H](CCC(=O)[*:2])N[*:1]; Palmitoyl = CCCCCCCCCCCCCCCC(=O)*; Orn = NCCC[C@H](N)C(=O)O; AEEA = NCCOCCOCC(=O)O

Experiments:
human GLP-1 R = target: T1, human GLP-1 R (Homo sapiens, UniProt P43220); assay: Human GLP-1 receptor efficacy assay (cAMP induction, FlashPlate); assay type: cell-based; details: read-out: hGLP-1 R EC50
T1 construct: expressed in transfected cells
T1 sequence (P43220 24-463): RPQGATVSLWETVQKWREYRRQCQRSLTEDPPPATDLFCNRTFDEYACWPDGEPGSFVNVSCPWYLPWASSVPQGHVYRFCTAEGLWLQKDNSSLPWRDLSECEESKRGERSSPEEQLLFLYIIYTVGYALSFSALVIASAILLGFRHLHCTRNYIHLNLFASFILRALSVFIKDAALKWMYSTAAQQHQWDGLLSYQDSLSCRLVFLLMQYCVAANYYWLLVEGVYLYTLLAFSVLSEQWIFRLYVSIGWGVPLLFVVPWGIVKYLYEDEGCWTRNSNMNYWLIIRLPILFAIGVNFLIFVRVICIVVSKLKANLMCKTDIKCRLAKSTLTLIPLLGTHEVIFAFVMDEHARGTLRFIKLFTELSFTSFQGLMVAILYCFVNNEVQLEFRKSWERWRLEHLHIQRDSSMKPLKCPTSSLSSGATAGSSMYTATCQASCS
Method: On the day of analysis, growth medium was removed and the cells were washed once with 200 μl Tyrode buffer [Tyrode's Salts (9.6 g/l), 10 mM HEPES, pH 7.4]. […] The reaction was stopped by addition of 25 μl 0.5 M HCl and incubated on ice for 60 min.

human CCK-B R = target: T2, human CCK-B R (Homo sapiens, UniProt P32239); assay: Human CCK-B receptor efficacy assay (AlphaScreen SureFire p-ERK); assay type: cell-based; details: read-out: hCCK-B R EC50
T2 construct: expressed in transfected cells
T2 sequence (P32239 1-447): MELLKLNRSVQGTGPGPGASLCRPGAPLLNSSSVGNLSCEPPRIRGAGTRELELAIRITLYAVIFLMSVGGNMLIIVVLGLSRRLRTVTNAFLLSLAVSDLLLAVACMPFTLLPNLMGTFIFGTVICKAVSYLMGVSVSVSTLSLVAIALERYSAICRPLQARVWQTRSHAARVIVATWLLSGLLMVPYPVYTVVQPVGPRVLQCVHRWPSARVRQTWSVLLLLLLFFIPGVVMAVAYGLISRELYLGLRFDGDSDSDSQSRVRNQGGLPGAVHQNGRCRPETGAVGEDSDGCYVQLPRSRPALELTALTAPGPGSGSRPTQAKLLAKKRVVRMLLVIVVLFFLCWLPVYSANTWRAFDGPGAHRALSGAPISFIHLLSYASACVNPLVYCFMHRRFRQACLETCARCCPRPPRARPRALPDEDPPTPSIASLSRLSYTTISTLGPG
Method: CCK-B Receptor (CCK-B R) Efficacy Assay:
In vitro effects of peptide conjugates of the invention were estimated by measuring p-ERK (using the AlphaScreen™ SureFire p-ERK assay) in HEK293 cells stably expressing the human and mouse CCK-B R (high-affinity Gastrin receptor), respectively. The Gastrin receptor efficacy assays (AlphaScreen™ SureFire p-ERK assay) were performed as follows:
The CCK-B R expressing cells in question were seeded at 20,000 cells/well in 100 μl growth medium [DMEM, 10% FCS, Penicillin (100 IU/ml), Streptomycin (100 μg/ml)] in a 96-well plate coated with poly-D-lysine. The cells were incubated in an incubator (37° C., 5% 002) for two days.
The growth medium was changed to 80 μl of serum-free medium [DMEM, Penicillin (100 IU/ml), Streptomycin (100 μg/ml)] per well, and incubation of the cells was continued for 19 hours in the incubator (37° C., 5% CO2).
After 19 hours, 20 μl of serum-free medium containing one of 5 different concentrations of peptide conjugate was added (performed in triplicate for each concentration), and the cells were incubated for 5 min. at room temperature. • 2. The stimulation medium was discarded by quickly turning the plate upside down, and 60 μl 1× lysis buffer (from the SureFire assay kit) was added per well. • 3. The plate was shaken on a plate-shaker for 5 min and then placed on ice. • 4. SureFire P-ERK assay: 4 μl of each supernatant was transferred to a 384 well proxiplate (Perkin Elmer). • 5. 4 μl of each of the two control lysates (unstimulated and stimulated) were added to the proxiplate in duplicate. • 6. […] 7 μl of the latter reaction buffer+activation buffer+beads per well were added in the proxiplate, the mix being resuspended carefully before addition to the wells. • 7. The plate was incubated for 2 hours in a dark box in a 22° C. incubator. • 8. The plate was analyzed on an Envision™ light-emission plate reader (Perkin-Elmer) using the appropriate reading program (Perkin-Elmer).

Compound: CC[C@H](C)[C@H](NC(=O)[C@H](Cc1ccccc1)NC(=O)[C@H](CCC(=O)O)NC(=O)[C@H](CCCCN)NC(=O)[C@H](C)NC(=O)[C@H](C)NC(=O)[C@H](CCC(N)=O)NC(=O)CNC(=O)[C@H](CCC(=O)O)NC(=O)[C@H](CC(C)C)NC(=O)[C@H](Cc1ccc(O)cc1)NC(=O)[C@H](CO)NC(=O)[C@H](CO)NC(=O)[C@@H](NC(=O)[C@H](CC(=O)O)NC(=O)[C@H](CO)NC(=O)[C@@H](NC(=O)[C@H](Cc1ccccc1)NC(=O)[C@@H](NC(=O)CNC(=O)[C@H](CCC(=O)O)NC(=O)C(C)(C)NC(=O)[C@@H](N)Cc1c[nH]cn1)[C@@H](C)O)[C@@H](C)O)C(C)C)C(=O)N[C@@H](C)C(=O)N[C@@H](Cc1c[nH]c2ccccc12)C(=O)N[C@@H](CC(C)C)C(=O)N[C@H](C(=O)N[C@@H](CCCNC(=N)N)C(=O)NCC(=O)N[C@@H](CCCNC(=N)N)C(=O)NCC(=O)NCCOCCOCC(=O)NCCOCCOCC(=O)N[C@@H](Cc1ccc(O)cc1)C(=O)NCC(=O)N[C@@H](Cc1c[nH]c2ccccc12)C(=O)N[C@@H](CC(C)C)C(=O)N[C@@H](CC(=O)O)C(=O)N[C@@H](Cc1ccccc1)C(N)=O)C(C)C [Compound 112, [Aib8,Arg34]GLP-1(7-37)-Peg3-Peg3-[Leu4]Gastrin6]
- EC50 (human GLP-1 R; Table 3): 0.043 nM
- EC50 (human CCK-B R; Table 3): 42 nM

Compound: CC[C@H](C)[C@H](NC(=O)[C@H](Cc1ccccc1)NC(=O)[C@H](CC(C)C)NC(=O)[C@H](CCCNC(=N)N)NC(=O)[C@@H](NC(=O)[C@H](C)NC(=O)[C@H](CCC(=O)O)NC(=O)[C@H](CCC(=O)O)NC(=O)[C@H](CCC(=O)O)NC(=O)[C@H](CC(C)C)NC(=O)[C@H](Cc1ccc(O)cc1)NC(=O)[C@H](CCCNC(=N)N)NC(=O)[C@H](CO)NC(=O)[C@H](CC(C)C)NC(=O)[C@H](CC(=O)O)NC(=O)[C@H](CO)NC(=O)[C@@H](NC(=O)[C@H](Cc1ccccc1)NC(=O)[C@@H](NC(=O)CNC(=O)[C@H](CCC(=O)O)NC(=O)CNC(=O)[C@@H](N)Cc1c[nH]cn1)[C@@H](C)O)[C@@H](C)O)C(C)C)C(=O)N[C@@H](CCCCN)C(=O)N[C@@H](Cc1ccccc1)C(=O)N[C@@H](CC(C)C)C(=O)N[C@@H](CCCNC(=N)N)C(=O)NCCOCCOCC(=O)N[C@@H](Cc1ccc(O)cc1)C(=O)NCC(=O)N[C@@H](Cc1c[nH]c2ccccc12)C(=O)N[C@@H](CC(C)C)C(=O)N[C@@H](CC(=O)O)C(=O)N[C@@H](Cc1ccccc1)C(N)=O [Compound 94, [Arg12,27,Leu14,Lys24,Phe25,Tyr13]Exendin-4(1-27)-Peg3-[Leu4]Gastrin6] (H-HGEGTFTSDLSRYLEEEAVRLFIKFLR[AEEA]YGWLDF-NH2)
- EC50 (human GLP-1 R; Table 2): 0.13 nM
- EC50 (human CCK-B R; Table 2): 36 nM

Compound: CC[C@H](C)[C@H](NC(=O)[C@H](Cc1ccccc1)NC(=O)[C@H](CC(C)C)NC(=O)[C@H](CCCNC(=N)N)NC(=O)[C@@H](NC(=O)[C@H](C)NC(=O)[C@H](CCC(=O)O)NC(=O)[C@H](CCC(=O)O)NC(=O)[C@H](CCC(=O)O)NC(=O)[C@H](CC(C)C)NC(=O)[C@H](Cc1ccc(O)cc1)NC(=O)[C@H](CCCCN)NC(=O)[C@H](CO)NC(=O)[C@H](CC(C)C)NC(=O)[C@H](CCC(=O)O)NC(=O)[C@H](CO)NC(=O)[C@@H](NC(=O)[C@H](Cc1ccccc1)NC(=O)[C@@H](NC(=O)CNC(=O)[C@H](CCC(=O)O)NC(=O)CNC(=O)[C@@H](N)Cc1c[nH]cn1)[C@@H](C)O)[C@@H](C)O)C(C)C)C(=O)N[C@@H](CCC(=O)O)C(=O)N[C@@H](Cc1ccccc1)C(=O)N[C@@H](CC(C)C)C(=O)N[C@@H](CCCCN)C(=O)NCCOCCOCC(=O)NCCOCCOCC(=O)N[C@@H](Cc1ccc(O)cc1)C(=O)NCC(=O)N[C@@H](Cc1c[nH]c2ccccc12)C(=O)N[C@@H](CC(C)C)C(=O)N[C@@H](CC(=O)O)C(=O)N[C@@H](Cc1ccccc1)C(N)=O [Compound 88, [Glu9,Leu14,Phe25,Tyr13]Exendin-4(1-27)-Peg3-Peg3-[Leu4]Gastrin6] (H-HGEGTFTSELSKYLEEEAVRLFIEFLK[AEEA][AEEA]YGWLDF-NH2)
- EC50 (human GLP-1 R; Table 2): 0.046 nM
- EC50 (human CCK-B R; Table 2): 20 nM

Compound: CC[C@H](C)[C@H](NC(=O)[C@H](Cc1ccccc1)NC(=O)[C@H](CC(C)C)NC(=O)[C@H](CCCNC(=N)N)NC(=O)[C@@H](NC(=O)[C@H](C)NC(=O)[C@H](CCC(=O)O)NC(=O)[C@H](CCC(=O)O)NC(=O)[C@H](CCC(=O)O)NC(=O)[C@H](CC(C)C)NC(=O)[C@H](Cc1ccc(O)cc1)NC(=O)[C@H](CCCCN)NC(=O)[C@H](CO)NC(=O)[C@H](CC(C)C)NC(=O)[C@H](CCC(=O)O)NC(=O)[C@H](CO)NC(=O)[C@@H](NC(=O)[C@H](Cc1ccccc1)NC(=O)[C@@H](NC(=O)CNC(=O)[C@H](CCC(=O)O)NC(=O)CNC(=O)[C@@H](N)Cc1c[nH]cn1)[C@@H](C)O)[C@@H](C)O)C(C)C)C(=O)N[C@@H](CCC(=O)O)C(=O)N[C@@H](Cc1ccccc1)C(=O)N[C@@H](CC(C)C)C(=O)N[C@@H](CCCCN)C(=O)N[C@@H](CCCN)C(=O)N[C@@H](CCCN)C(=O)N[C@@H](Cc1ccc(O)cc1)C(=O)NCC(=O)N[C@@H](Cc1c[nH]c2ccccc12)C(=O)N[C@@H](CC(C)C)C(=O)N[C@@H](CC(=O)O)C(=O)N[C@@H](Cc1ccccc1)C(N)=O [Compound 105, [Glu9,Leu14,Phe25,Tyr13]Exendin-4(1-27)-Orn-Orn-[Leu4]Gastrin6] (H-HGEGTFTSELSKYLEEEAVRLFIEFLK[Orn][Orn]YGWLDF-NH2)
- EC50 (human GLP-1 R; Table 2): 0.11 nM
- EC50 (human CCK-B R; Table 2): 16 nM

Compound: CC[C@H](C)[C@H](NC(=O)[C@H](Cc1ccccc1)NC(=O)[C@H](CC(C)C)NC(=O)[C@H](CCCNC(=N)N)NC(=O)[C@@H](NC(=O)[C@H](C)NC(=O)[C@H](CCC(=O)O)NC(=O)[C@H](CCCCN)NC(=O)[C@H](CCC(=O)O)NC(=O)[C@H](CCSC)NC(=O)[C@H](CCC(N)=O)NC(=O)[C@H](CCCCN)NC(=O)[C@H](CO)NC(=O)[C@H](CC(C)C)NC(=O)[C@H](CC(=O)O)NC(=O)[C@H](CO)NC(=O)[C@@H](NC(=O)[C@H](Cc1ccccc1)NC(=O)[C@@H](NC(=O)CNC(=O)[C@H](CCC(=O)O)NC(=O)CNC(=O)[C@@H](N)Cc1c[nH]cn1)[C@@H](C)O)[C@@H](C)O)C(C)C)C(=O)N[C@@H](CCC(=O)O)C(=O)N[C@@H](Cc1c[nH]c2ccccc12)C(=O)N[C@@H](CC(C)C)C(=O)N[C@@H](CCCCN)C(=O)N[C@@H](CC(N)=O)C(=O)NCCOCCOCC(=O)NCCOCCOCC(=O)N[C@@H](Cc1ccc(O)cc1)C(=O)NCC(=O)N[C@@H](Cc1c[nH]c2ccccc12)C(=O)N[C@@H](CC(C)C)C(=O)N[C@@H](CC(=O)O)C(=O)N[C@@H](Cc1ccccc1)C(N)=O [Compound 81, [Lys16]Exendin-4(1-28)-Peg3-Peg3-[Leu4]Gastrin6] (H-HGEGTFTSDLSKQMEKEAVRLFIEWLKN[AEEA][AEEA]YGWLDF-NH2)
- EC50 (human GLP-1 R; Table 2): 0.032 nM
- EC50 (human CCK-B R; Table 2): 15 nM

Compound: CC[C@H](C)[C@H](NC(=O)[C@H](Cc1ccccc1)NC(=O)[C@H](CC(C)C)NC(=O)[C@H](CCCNC(=N)N)NC(=O)[C@@H](NC(=O)[C@H](C)NC(=O)[C@H](CCC(=O)O)NC(=O)[C@H](CCC(=O)O)NC(=O)[C@H](CCC(=O)O)NC(=O)[C@H](CC(C)C)NC(=O)[C@H](Cc1ccc(O)cc1)NC(=O)[C@H](CCCCN)NC(=O)[C@H](CO)NC(=O)[C@H](CC(C)C)NC(=O)[C@H](CCC(=O)O)NC(=O)[C@H](CO)NC(=O)[C@@H](NC(=O)[C@H](Cc1ccccc1)NC(=O)[C@@H](NC(=O)CNC(=O)[C@H](CCC(=O)O)NC(=O)CNC(=O)[C@@H](N)Cc1c[nH]cn1)[C@@H](C)O)[C@@H](C)O)C(C)C)C(=O)N[C@@H](CCC(=O)O)C(=O)N[C@@H](Cc1ccccc1)C(=O)N[C@@H](CC(C)C)C(=O)N[C@@H](CCCCN)C(=O)NCCOCCOCC(=O)NCCOCCOCC(=O)N[C@@H](Cc1ccc(O)cc1)C(=O)NCC(=O)N[C@@H](Cc1ccccc1)C(=O)N[C@@H](CC(C)C)C(=O)N[C@@H](CC(=O)O)C(=O)N[C@@H](Cc1ccccc1)C(N)=O [Compound 90, [Glu9,Leu14,Phe25,Tyr13]Exendin-4(1-27)-Peg3-Peg3-[Leu4,Phe3]Gastrin6] (H-HGEGTFTSELSKYLEEEAVRLFIEFLK[AEEA][AEEA]YGFLDF-NH2)
- EC50 (human GLP-1 R; Table 2): 0.032 nM
- EC50 (human CCK-B R; Table 2): 1300 nM

Compound: CCCCCCCCCCCCCCCC(=O)N[C@@H](CCC(=O)NCCCC[C@H](NC(=O)CNC(=O)[C@H](CCCNC(=N)N)NC(=O)[C@@H](NC(=O)[C@H](CC(C)C)NC(=O)[C@H](Cc1c[nH]c2ccccc12)NC(=O)[C@H](C)NC(=O)[C@@H](NC(=O)[C@H](Cc1ccccc1)NC(=O)[C@H](CCC(=O)O)NC(=O)[C@H](CCCNC(=N)N)NC(=O)[C@H](C)NC(=O)[C@H](C)NC(=O)[C@H](CCC(N)=O)NC(=O)CNC(=O)[C@H](CCC(=O)O)NC(=O)[C@H](CC(C)C)NC(=O)[C@H](Cc1ccc(O)cc1)NC(=O)[C@H](CO)NC(=O)[C@H](CO)NC(=O)[C@@H](NC(=O)[C@H](CC(=O)O)NC(=O)[C@H](CO)NC(=O)[C@@H](NC(=O)[C@H](Cc1ccccc1)NC(=O)[C@@H](NC(=O)CNC(=O)[C@H](CCC(=O)O)NC(=O)CNC(=O)[C@@H](N)Cc1c[nH]cn1)[C@@H](C)O)[C@@H](C)O)C(C)C)[C@@H](C)CC)C(C)C)C(=O)NCC(=O)NCCOCCOCC(=O)NCCOCCOCC(=O)N[C@@H](Cc1ccc(O)cc1)C(=O)NCC(=O)N[C@@H](Cc1c[nH]c2ccccc12)C(=O)N[C@@H](CC(C)C)C(=O)N[C@@H](CC(=O)O)C(=O)N[C@@H](Cc1ccccc1)C(N)=O)C(=O)O [Compound 110, [Arg26,34,Gly8,Lys(Hexadecanoyl-isoGlu)36]GLP-1(7-37)-Peg3-Peg3-[Leu4]Gastrin6] (H-HGEGTFTSDVSSYLEGQAAREFIAWLVRGK([γGlu-Palmitoyl])G[AEEA][AEEA]YGWLDF-NH2)
- EC50 (human GLP-1 R; Table 3): 0.12 nM
- EC50 (human CCK-B R; Table 3): 29 nM
